The source of these data is patent US12011442B2, “Solid-state forms of Abemaciclib, their use and preparation” (MACFARLAN SMITH LIMITED, priority 2018, dated 2024).

Holding throughout (type): physicochemical
Data set [1] can be described thus: Thermogravimetric analysis (TGA), onset of decomposition. The conditions noted are these: heating rate 10.0° C./min, nitrogen; FIG. 6. The method, then: Analysis—TGA (Thermo Gravimetric Analysis) TGA measurements are recorded using TA Q500 instrument. The samples are weighed in aluminum pans. TGA investigations are performed at a heating rate of 10.0° C./min over a temperature range of 30-350° C., purging with nitrogen at a flow rate of 60 mL/min.

The nature of data set [2]: Dynamic vapor sorption (DVS) / sorption isotherm.
Data set [3] in a line: Solid-state stability of the crystalline solvate (observation). As to conditions: desolvates on exposure to air. The protocol:
A variable methanol solvate of ABC is produced by dissolving ABC in warm (55° C.) methanol (about 200 mg/mL) and then cooling (−5° C.) to force precipitation of a white powder. The resulting powder is examined by XRPD while still wet (FIG. 1, top pattern). Single crystals are grown by slow evaporation of methanol into an antisolvent (preferably ethyl acetate) or by slowly cooling a saturated solution from 50° C. to 0° C. over the course of several hours, and not exposed to air, to obviate evaporation of the solvate and the collapse of the crystalline lattice. Single crystal X-ray diffraction (SCXRD) data is undertaken at 100° K to improve diffraction quality as well as prevent desolvation. […] The single crystal is determined to be Form I of variable methanol solvate of ABC (FIG. 2) having about 2.5-3 molecules of methanol, preferably about 2.75 molecules of methanol. Form I of variable methanol solvate of ABC is unstable.

For `CCN1CCN(Cc2ccc(Nc3ncc(F)c(-c4cc(F)c5nc(C)n(C(C)C)c5c4)n3)nc2)CC1` [Form II anhydrous ABC], the “onset of decomposition (TGA)” value in data set [1] is “about 320 °C”. Besides, the “H2O absorbed by weight (DVS)” value in data set [2] (between 0-90% relative humidity (RH), FIG. 7) is listed as “about 8%”. The “drop in weight during desorption” value in data set [2] (desorption at 20% RH, consistent with loss of a molecule of water) is recorded as “about 4%”. In data set [2] (desorption between 30-20% RH, FIG. 8), the “H2O lost in one desorption step (sorption isotherm)” value came out at 4%. For the same compound, the “transformation from Form II anhydrous ABC to Form III of hydrate of ABC” value in data set [2] (humidity sorption/desorption) is “reversible”.
Take `CCN1CCN(Cc2ccc(Nc3ncc(F)c(-c4cc(F)c5nc(C)n(C(C)C)c5c4)n3)nc2)CC1`: in data set [3], the “stability of the solid-state form” value is given as “unstable”.
